{"source": "patent US12459951B2", "about": "“Compounds that interact with RAS superfamily proteins for treatment of cancers, inflammatory diseases, rasopathies, and fibrotic disease” (SHY Therapeutics, LLC, priority 2022, dated 2025)"}
{"system": "Akt phosphorylation", "test": "Akt Phosphorylation Assay (western blot), Panc-1", "type": "cell-based, human", "settings": "at 10 μM, * = activation", "method": "Protocol for Western Akt Cell-Based Phosphorylation Assay\nThis assay is referred to as the “Akt Phosphorylation Assay” throughout this application.\nHuman tumor-derived pancreatic cancer cell line Panc-1 (expressing KRas G12D mutant) was purchased from American Type Culture Collection and grown in complete DMEM-High Glucose supplemented with penicillin (100 U/mL), streptomycin (100 μg/mL), and 10% heat-inactivated FBS at 37° C. in a humidified incubator with 5% CO2.\nMethod 1: Cells were plated at 350000 cells/well density in a 12-well plate, allowed 3 hours to adhere to the plate, then starved in the appropriate medium in the presence of 0.5% FBS overnight. The small molecules to be tested were added to the cells in the final concentration of 10 μM in the presence of 0.3% DMSO for 6 hours incubation at 37° C. Next, cells were stimulated with 1.5 ng/ml EGF for 15 minutes then cells were lysed with lysis buffer containing 1% Triton X-100, EDTA, and Halt™ Protease & Phosphatase Inhibitor Cocktail (Thermo Scientific). Protein concentration was assessed by BCA protein assay (Thermo Scientific). Phosphorylation level of Akt was determined by western blot.\nMethod 2: Cells were plated at 350000 cells/well density in a 12-well plate in 10% FBS. The next day small molecules to be tested were added to the cells in the final concentration of 10 μM in the presence of 0.3% DMSO for 6 hours incubation at 37° C. For IC50 value determination, serial dilutions of compounds were added to cells under the same conditions. Next, cells were lysed with lysis buffer containing 1% Triton X-100, EDTA, and Halt™ Protease & Phosphatase Inhibitor Cocktail (Thermo Scientific). Protein concentration was assessed by BCA protein assay (Thermo Scientific). Phosphorylation level of Akt was determined by western blot.\nWestern blot protocol: Equal amounts of protein (15-50 μg) were separated by SDS-PAGE and transferred to nitrocellulose membranes (Invitrogen by Thermo Fisher Scientific). The membrane was stained with Ponceau S Stain (Boston BioProducts) to verify uniform protein loading. Membranes were blocked with 10% milk and phosphorylation levels of Akt were assessed by incubating overnight at 4° C. with anti-phospho-Akt (Ser473) antibody (Cell Signaling) followed by HRP-conjugated secondary antibody (Jackson Immunoresearch, West Grove, PA). Bands were incubated in Amersham ECL Prime Western Blotting Detection Reagent (GE Healthcare) and visualized using the ChemiDoc MP imaging system (Bio-Rad)."}
{"smiles": "Cc1c(-c2ccn(C)n2)cn2nc(-c3nccn3C)nc(Nc3ccn(C4CC4)n3)c12", "note": "[Compound 111, N-(1-Cyclopropyl-1H-pyrazol-3-yl)-5-methyl-2-(1-methyl-1H-imidazol-2-yl)-6-(1-methyl-1H-pyrazol-3-yl)pyrrolo[2,1-f][1,2,4]triazin-4-amine]", "% inh of Akt phosphorylation in Panc-1": "D* (85-100% activation)"}
{"smiles": "COc1cccnc1Nc1nc(-c2nccn2C)nn2cc(-c3ccn(C)n3)c(C)c12", "note": "[Compound 112, N-(3-Methoxypyridin-2-yl)-5-methyl-2-(1-methyl-1H-imidazol-2-yl)-6-(1-methyl-1H-pyrazol-3-yl)pyrrolo[2,1-f][1,2,4]triazin-4-amine]", "% inh of Akt phosphorylation in Panc-1": "D* (85-100% activation)"}
{"smiles": "Cc1c(-c2ccn(C)n2)cn2nc(-c3nccn3C)nc(Nc3n[nH]c(C4CC4)n3)c12", "note": "[Compound 113, N-(5-Cyclopropyl-1H-1,2,4-triazol-3-yl)-5-methyl-2-(1-methyl-1H-imidazol-2-yl)-6-(1-methyl-1H-pyrazol-3-yl)pyrrolo[2,1-f][1,2,4]triazin-4-amine]", "% inh of Akt phosphorylation in Panc-1": "D* (85-100% activation)"}
{"smiles": "COc1ccnc(Nc2nc(-c3nccn3C)nn3cc(-c4ccn(C)n4)c(C)c23)n1.Cl", "note": "[Compound 114, N-(4-Methoxypyrimidin-2-yl)-5-methyl-2-(1-methyl-1H-imidazol-2-yl)-6-(1-methyl-1H-pyrazol-3-yl)pyrrolo[2,1-f][1,2,4]triazin-4-amine hydrochloride salt]", "% inh of Akt phosphorylation in Panc-1": "D* (85-100% activation)"}
{"smiles": "Cc1c(-c2ccn(C)n2)cn2nc(-c3nccn3C)nc(Nc3ncccn3)c12.Cl", "note": "[Compound 115, 5-Methyl-2-(1-methyl-1H-imidazol-2-yl)-6-(1-methyl-1H-pyrazol-3-yl)-N-(pyrimidin-2-yl)pyrrolo[2,1-f][1,2,4]triazin-4-amine hydrochloride salt]", "% inh of Akt phosphorylation in Panc-1": "D* (85-100% activation)"}
{"smiles": "COc1cnc(Nc2nc(-c3nccn3C)nn3cc(-c4ccn(C)n4)c(C)c23)nc1.Cl", "note": "[Compound 117, N-(5-Methoxypyrimidin-2-yl)-5-methyl-2-(1-methyl-1H-imidazol-2-yl)-6-(1-methyl-1H-pyrazol-3-yl)pyrrolo[2,1-f][1,2,4]triazin-4-amine hydrochloride salt]", "% inh of Akt phosphorylation in Panc-1": "B (26-49% inhibition)"}
{"smiles": "Cc1c(-c2ccn(C)n2)cn2nc(-c3nccn3C)nc(Nc3nnco3)c12.Cl", "note": "[Compound 119, N-(5-Methyl-2-(1-methyl-1H-imidazol-2-yl)-6-(1-methyl-1H-pyrazol-3-yl)pyrrolo[2,1-f][1,2,4]triazin-4-yl)-1,3,4-oxadiazol-2-amine hydrochloride salt]", "% inh of Akt phosphorylation in Panc-1": "D* (85-100% activation)"}
{"smiles": "Cc1c(-c2ccn(C)n2)cn2nc(-c3nccn3C)nc(Nc3cnccn3)c12", "note": "[Compound 120, 5-Methyl-2-(1-methyl-1H-imidazol-2-yl)-6-(1-methyl-1H-pyrazol-3-yl)-N-(pyrazin-2-yl)pyrrolo[2,1-f][1,2,4]triazin-4-amine]", "% inh of Akt phosphorylation in Panc-1": "B* (26-49% activation)"}
{"smiles": "Cc1c(-c2ccn(C(C)C)n2)cn2nc(-c3nccn3C)nc(Nc3nccc(OCCO)n3)c12", "note": "[Compound 121, 2-((2-((6-(1-Isopropyl-1H-pyrazol-3-yl)-5-methyl-2-(1-methyl-1H-imidazol-2-yl)pyrrolo[2,1-f][1,2,4]triazin-4-yl)amino)pyrimidin-4-yl)oxy)ethan-1-ol]", "% inh of Akt phosphorylation in Panc-1": "B* (26-49% activation)"}
{"smiles": "COCCOc1cc(Nc2nc(-c3nccn3C)nn3cc(-c4ccn(C(C)C)n4)c(C)c23)ncn1", "note": "[Compound 122, 6-(1-Isopropyl-1H-pyrazol-3-yl)-N-(6-(2-methoxyethoxy)pyrimidin-4-yl)-5-methyl-2-(1-methyl-1H-imidazol-2-yl)pyrrolo[2,1-f][1,2,4]triazin-4-amine]", "% inh of Akt phosphorylation in Panc-1": "C* (46-84% activation)"}
{"smiles": "Cc1c(-c2ccn(C(C)C)n2)cn2nc(-c3nccn3C)nc(Nc3cc(OCCN(C)C)ncn3)c12", "note": "[Compound 123, N-(6-(2-(Dimethylamino)ethoxy)pyrimidin-4-yl)-6-(1-isopropyl-1H-pyrazol-3-yl)-5-methyl-2-(1-methyl-1H-imidazol-2-yl)pyrrolo[2,1-f][1,2,4]triazin-4-amine]", "% inh of Akt phosphorylation in Panc-1": "B* (26-49% activation)"}
{"smiles": "Cc1c(-c2ccn(C(C)C)n2)cn2nc(-c3nccn3C)nc(Nc3ncc[nH]3)c12", "note": "[Compound 125, N-(1H-Imidazol-2-yl)-6-(1-isopropyl-1H-pyrazol-3-yl)-5-methyl-2-(1-methyl-1H-imidazol-2-yl)pyrrolo[2,1-f][1,2,4]triazin-4-amine]", "% inh of Akt phosphorylation in Panc-1": "D* (85-100% activation)"}
{"smiles": "COCCO[C@H]1C[C@H](Nc2nc(-c3nccn3C)nn3cc(-c4ccn(C)n4)c(C)c23)C1", "note": "[Compound 130, N-((1r,3r)-3-(2-Methoxyethoxy)cyclobutyl)-5-methyl-2-(1-methyl-1H-imidazol-2-yl)-6-(1-methyl-1H-pyrazol-3-yl)pyrrolo[2,1-f][1,2,4]triazin-4-amine]", "% inh of Akt phosphorylation in Panc-1": "D* (85-100% activation)"}
{"smiles": "CO[C@H]1C[C@@H](Nc2nc(-c3nccn3C)nn3cc(-c4ccn(C)n4)c(C)c23)C1", "note": "[Compound 131, N-((1s,3s)-3-Methoxycyclobutyl)-5-methyl-2-(1-methyl-1H-imidazol-2-yl)-6-(1-methyl-1H-pyrazol-3-yl)pyrrolo[2,1-f][1,2,4]triazin-4-amine]", "% inh of Akt phosphorylation in Panc-1": "A (1-25% inhibition)"}
{"smiles": "Cc1c(-c2ccn(C3CC3)n2)cn2nc(-c3nccn3C)nc(O)c12", "note": "[Compound 134, 6-(1-Cyclopropyl-1H-pyrazol-3-yl)-5-methyl-2-(1-methyl-1H-imidazol-2-yl)pyrrolo[2,1-f][1,2,4]triazin-4-ol]", "% inh of Akt phosphorylation in Panc-1": "A (1-25% inhibition)"}
{"smiles": "COc1cc(Nc2nc(-c3nccn3C)nn3cc(-c4ccn(C5CC5)n4)c(C)c23)ncn1", "note": "[Compound 135, 6-(1-Cyclopropyl-1H-pyrazol-3-yl)-N-(6-methoxypyrimidin-4-yl)-5-methyl-2-(1-methyl-1H-imidazol-2-yl)pyrrolo[2,1-f][1,2,4]triazin-4-amine]", "% inh of Akt phosphorylation in Panc-1": "D* (85-100% activation)"}
{"smiles": "Cc1c(-c2ccn(C)n2)cn2nc(-c3nccn3C)nc(Nc3cc(OC(C)C)ccn3)c12", "note": "[Compound 136, N-(4-Isopropoxypyridin-2-yl)-5-methyl-2-(1-methyl-1H-imidazol-2-yl)-6-(1-methyl-1H-pyrazol-3-yl)pyrrolo[2,1-f][1,2,4]triazin-4-amine]", "% inh of Akt phosphorylation in Panc-1": "D* (85-100% activation)"}
{"smiles": "Cc1c(-c2ccn(C3CC3)n2)cn2nc(-c3nccn3C)nc(Nc3cc(OC(F)(F)F)ccn3)c12", "note": "[Compound 138, 6-(1-Cyclopropyl-1H-pyrazol-3-yl)-5-methyl-2-(1-methyl-1H-imidazol-2-yl)-N-(4-(trifluoromethoxy)pyridin-2-yl)pyrrolo[2,1-f][1,2,4]triazin-4-amine]", "% inh of Akt phosphorylation in Panc-1": "D* (85-100% activation)"}
{"smiles": "Cc1c(-c2ccn(C3CC3)n2)cn2nc(-c3nccn3C)nc(Nc3cc(OC(F)F)ccn3)c12", "note": "[Compound 139, 6-(1-Cyclopropyl-1H-pyrazol-3-yl)-N-(4-(difluoromethoxy)pyridin-2-yl)-5-methyl-2-(1-methyl-1H-imidazol-2-yl)pyrrolo[2,1-f][1,2,4]triazin-4-amine]", "% inh of Akt phosphorylation in Panc-1": "D* (85-100% activation)"}
